Each structure is given as a SMILES string. “And” between values parts separate entries of the source, which are not always exact repeats. Identical values can stand only once. Like-named read-outs stand apart in the source and are kept apart here. Marks after values point to notes of the source that are not given here.

The test system of experiment [1] is NIH Swiss mice. As to the kind of experiment: Core body temperature by biotelemetry (cannabinoid tetrad, hypothermia). The class given is in vivo, mouse. As for the experimental part:
Prior to surgery (see below), male NIH Swiss mice (Harlan Sprague Dawley Inc., Indianapolis, Ind.), weighing approximately 25-30 g, were housed 3 animals per Plexiglas® cage (15.24×25.40×12.70 cm) in a temperature-controlled room in an Association for Assessment and Accreditation of Laboratory Animal Care (AAALAC) accredited animal facility at the University of Arkansas for Medical Sciences. Room conditions were maintained at 22±2° C. and 45-50% humidity. Lights were set to a 12-h light/dark cycle. Animals were fed Lab Diet rodent chow (Laboratory Rodent Diet #5001, PMI Feeds, Inc., St. Louis, Mo.) and water ad libitum throughout testing Animals were acclimated to the laboratory environment for ˜7 days prior to experiments, and to the biotelemetry chambers for at least 2 hours prior to initiation of data acquisition. All test conditions used groups of 5 or 6 mice, and all mice were drug-naïve (with the exception of surgical anesthetics) prior to testing.
Cannabinoid effects on core temperature and locomotor activity were measured using surgically-implanted biotelemetry probes. Following appropriate anesthetization with ketamine (100 mg/kg, intraperitoneal [i.p.]) and xylazine (10 mg/kg, i.p.), the abdominal area of each mouse was shaved and sanitized with iodine swabs. A rostral-caudal cut approximately 1.5 cm in length was made with skin scissors, providing access to the intraperitoneal cavity. A cylindrical glass-encapsulated radiotelemetry probe (model ER-4000 E-Mitter, Mini Mitter Co., Inc., Bend, Oreg.) was then inserted, and the incision was closed using absorbable 5-0 chromic gut suture material. At least 7 days were imposed between surgery and experimental observation of cannabinoid effects to allow incisions to heal and mice to recover normal body weights. Following surgery, implanted mice were individually housed in Plexiglas® mouse cages (15.24×25.40×12.70 cm) for the duration of all temperature and locomotor activity experiments Implanted transmitters produced activity- and temperature-modulated signals that were transmitted to a receiver (model ER-4000 Receiver, Mini Mitter Co., Inc., Bend, Oreg.) underneath each mouse cage. Receivers were housed in light- and sound-attenuating cubicles (Med Associates model ENV-022MD, St. Albans, Vt.) equipped with exhaust fans, which further masked ambient laboratory noise. On experimental days, mice were weighed, marked, and returned to their individual cages during which at least 1 hr of baseline data were collected. […]. Mice were then placed into a new cage with fresh bedding to stimulate exploratory behavior. Temperature and locomotor activity data were collected at regular 5-min intervals and processed simultaneously by the Vital View data acquisition system (Mini Mitter Co., Inc., Bend, Oreg.) for at least 10 hrs.
For core body temperature experiments, the area under the curve (AUC) was calculated using a trapezoidal rule from 0-500 minutes, and statistical significance (P<0.05) was determined using a one-way ANOVA, followed by Tukey's HSD post-hoc test. For locomotor activity, total locomotor counts were summed from 0-800 minutes. Because locomotor, analgesia and catalepsy data were not normally distributed, Kruskal-Wallis one-way ANOVA on ranks were performed, and all pair-wise comparisons were then made using the Tukey's HSD tests. In vivo statistical calculations were performed using SigmaStat 3 (Systat Software, Inc., San Jose, Calif.).

In experiment [2] the target is CB1Rs (Mus musculus (Mouse), UniProt P47746). As to the kind of experiment: [35S]GTPγS binding assay (G-protein activation) in mouse brain homogenates. The class given is biochemical. A general note: GTPγS is a poorly hydrolysed GTP analogue; its binding reports G protein activation.

`CCCCn1cc(C(=O)c2cccc3ccccc23)c2cccc(O)c21` [Compound M4]: the “JWH-018-induced hypothermia blunted by co-administration, core body temperature” value in experiment [1] (M4 10 mg/kg i.p. co-administered with JWH-018 3 mg/kg i.p.) was 33.09+/−0.70 °C. In experiment [1] (M4 10 mg/kg, i.p., alone), the “change in body temperature, given alone” value is “no significant change in body temperature”. In addition, the “effect on basal [35S]GTPγS binding levels when tested alone” value in experiment [2] (0.1 nM to 10 μM) is “neither significantly increased (characteristic of agonists), nor decreased”. Moreover, the Kb is 40.3 nM in experiment [2] (EC90 concentration of CP-55,940 (100 nM), from IC50 by modified Cheng-Prusoff, read-out: Kb, antagonism of CP-55,940-induced [35S]GTPγS binding); ~40 nM and 48.1 nM and 48 nM in experiment [2] (M4 1, 3, 10 μM shifting JWH-018 curve, read-out: Kb, Schild analysis against JWH-018). Also, the “antagonism of CB1R agonists and inverse agonists on [35S]GTPγS binding” value in experiment [2] (M4 10 μM co-incubated with CP-55,940, JWH-018, JWH-073, Rimonabant or AM251) is reported as “significantly antagonized the action of agonists”. In experiment [2] (against JWH-018), the Schild plot slope amounted to 0.97.
One may read the EC50 as the concentration at which the effect is half-maximal. Take `CCCCn1cc(C(=O)c2cccc3ccccc23)c2ccccc21` [JWH-073, (1-butyl-1H-indole-3-yl)-1-naphthalenyl-methanone]: in experiment [1] (10 mg/kg, i.p.), the “minimum core body temperature recorded” value amounted to 29.74±1.44 °C and the “time to maximal core body temperature reduction” value amounted to 54.17 ± 5.23 min. Moreover, the “[35S]GTPγS Binding, 1 μM” value in experiment [2] (1 μM) turned out to be 0.27 ± 0.04 pmol/mg. The “[35S]GTPγS Binding, +O-2050 (1 μM)” value in experiment [2] (1 μM cannabinoid (100 nM for CP-55,940) co-incubated with CB1R antagonist O-2050 1 μM) turned out to be 0.07 ± 0.02 pmol/mg. In addition, the “[35S]GTPγS Binding Emax” value in experiment [2] (concentration-effect, mouse brain homogenates) was 0.27 ± 0.01^a pmole/mg. For the same compound, the EC50 in experiment [2] (concentration-effect, mouse brain homogenates, read-out: [35S]GTPγS Binding EC50) was determined as 276 ± 65.3 nM. In addition, in experiment [2] (receptor-saturating concentration 10 μM), the “[35S]GTPγS Binding, 10 μM” value was 0.28±0.03 pmole/mg and 0.28 ± 0.03^c pmole/mg.

(Values after US9416103B2, “Use of the aminoalkylindole JWH-073-M4 and related compounds as neutral CB1 receptor antagonists for the treatment of alcoholism, drug abuse, obesity, and obesity-related diseases” (The Board of Trustees of the University of Arkansas, priority 2012, dated 2016).)
